Reference: US5047228A, “Nonionic 5-C-substituted 2,4,6-triiodoisophthalic acid derivatives” (Schering Aktiengesellschaft, priority 1980, dated 1991)

Tests used:
dog erythrocytes = test: Erythrocyte damage (echinocyte formation in dog erythrocytes); assay type: cell-based; details: effect of metrizamide set at 10 as a standard, smaller number = higher compatibility
Protocol: The deformation of erythrocytes (erythrocyte damage) due to X-ray contrast media can be taken as a measure for the membrane-damaging effect of the compound. In this instance, the formation of echinocytes was measured in dog erythrocytes, setting the effect of metrizamide at 10 as a standard. A smaller number signifies a correspondingly higher compatibility.

Iodine content = assay type: physicochemical
[1] = Distribution coefficient butanol/buffer pH 7.6; assay type: physicochemical
Text: The distribution coefficient of a compound permits ascertainment of its hydrophilicity and thus its compatibility; the lower the value of the distribution coefficient, the higher the compatibility of the compound tested.

[2] = Stability in heat sterilization; assay type: physicochemical
Text: The present invention comprises nonionic X-ray contrast media based on the opacifying compounds of this invention with novel basic structures. These novel opacifying compounds are distinguished by a number of advantages. They are derived from triiodinated aromatic basic components which themselves are hydrophilic and nontoxic. […] They are also distinguished by a high chemical stability, especially also under the conditions of heat sterilization.
Solutions of the compounds of this invention can thus also be sterilized in the usual way by heating to 120° C. at a physiological pH value. The solutions have a low osmotic pressure even at high iodine concentrations, compared with the state of the art ionic X-ray contrast media. This is especially a prerequisite for a good local compatibility.

LD50 rat (i.v.) = details: in vivo, iv, injection rate 2 ml/min, concentration 300 mg/ml, observation period 24 h
Protocol: (§1) *Injection rate 2 ml/min; concentration 300 mg/ml; observation period 24

LD50 mouse (i.v.) = details: in vivo, iv, injection rate 2 ml/min, concentration 300 mg/ml, observation period 24 h
Protocol: as §1

Structure (SMILES) | Erythrocyte Damage (dog erythrocytes) | Iodine Content (Iodine content) | Distribution Coefficient Butanol/Buffer pH 7.6 [1] | Stable in Heat Sterilization [2] | LD50 at 24 h (LD50 rat (i.v.)) | LD50 at 24 h (LD50 mouse (i.v.))
CN(CC(O)C(O)C(O)C(O)CO)C(=O)c1c(I)c(C(=O)N(C)CC(O)C(O)C(O)C(O)CO)c(I)c(C(=O)N(C)CC(O)C(O)C(O)C(O)CO)c1I (stereo not drawn) [E, 2,4,6-triiodobenzene-1,3,5-tricarboxylic acid tris(2,3,4,5,6-pentahydroxyhexyl-N-methyl)triamide] | < 0.3 | 34% | < 0.001 | Yes | – | –
CN(CC(O)CO)C(=O)c1c(I)c(C(=O)N(C)CC(O)CO)c(I)c(C(=O)N(C)CC(O)CO)c1I (stereo not drawn) [B, 2,4,6-triiodobenzene-1,3,5-tricarboxylic acid tris(2,3-dihydroxypropyl-N-methyl)triamide] | 2.1 | 45% | 0.064 | Yes | 11000 mg/kg | 16000 mg/kg
CN(C)C(=O)c1c(I)c(C(=O)NCC(O)CO)c(I)c(C(=O)NCC(O)CO)c1I (stereo not drawn) [F, 2,4,6-triiodobenzene-1,3,5-tricarboxylic acid [(N,N-dimethyl)-bis(2,3-dihydroxypropyl)]-triamide] | 2.7 | 50% | 0.171 | Yes | 11000 mg/kg | 14000 mg/kg
CC(=O)Nc1c(I)c(C(=O)N[C@H]2C(O)O[C@H](CO)[C@@H](O)[C@@H]2O)c(I)c(N(C)C(C)=O)c1I (stereo partly drawn) [A, reference compound] | 10 | 48% | 0.259 | No | 11000 mg/kg | 12000 mg/kg
CN(CC(O)CO)C(=O)c1c(I)c(C(N)=O)c(I)c(C(=O)N(C)CC(O)CO)c1I (stereo not drawn) [D, 2,4,6-triiodobenzene-1,3,5-tricarboxylic acid bis(2,3-dihydroxypropyl-N-methyl)triamide] | 4.2 | 50% | 0.074 | Yes | – | –
CNC(=O)c1c(I)c(C(=O)NC(CO)C(O)CO)c(I)c(C(=O)NC(CO)C(O)CO)c1I (stereo not drawn) [G, 5-N-methylcarbamoyl-2,4,6-triiodoisophthalic acid bis(2,3-dihydroxy-1-hydroxymethylpropyl)diamide] | 2.8 | 47% | 0.065 | Yes | 19000 mg/kg | –
O=C(c1c(I)c(C(=O)N(CCO)CCO)c(I)c(C(=O)N(CCO)CCO)c1I)N(CCO)CCO [C, 2,4,6-triiodobenzene-1,3,5-tricarboxylic acid tris(bis-2-hydroxyethyl)triamide] | 1.8 | 45% | 0.131 | Yes | 12000 mg/kg | –
